Data on 1 compound can be found in patent US6808904B2, “Herbicide-tolerant protox genes produced by DNA shuffling” (priority 1994, dated 2004).

SMILES strings stand for the structures.

In this assay the test system is maize protox-1 mutants. In words: Mutant screens of maize protox-1 (pMut-3) in the E. coli system. Type of assay: cell-based. To be noted: arginine 88 to cysteine; screen on this herbicide. As for the experimental part: The pMut-3 plasmid was transformed into the mutator XL1-Red strain as described above and the mutated DNA was isolated and plated on a herbicide concentration (formula XVII) that was lethal to the unmutagenized pMut-3 maize protox gene. Herbicide tolerant colonies were isolated after two days at 37° C. and analyzed as described above. […] Three of these mutations correspond to amino acid changes previously shown to confer tolerance at the homologous position in the Arabidopsis protox-1 gene. Two of the three are pMzC-1Val and pMzC-1Thr, converting the alanine (GCT) at amino acid 164 (SEQ ID NO:6) to either valine ([…]) or to threonine (ACT). This position corresponds to the pAraC-1 mutations described above (see, Table 1B; sub-sequence 3). The third analogous change, pMzC-3Ser, converts the glycine (GGT) at amino acid 165 to Serine (AGT), corresponding to the AraC-3Ser mutation described above (see, Table 1B; sub-sequence 4).
Additional mutant screens performed as described earlier in this example, except using formulas XXIIIa and XXIIIb instead of XVII, identified three additional amino acid changes that confer tolerant protox enzymes. […]

`Cn1nc(-c2c(F)cc(Cl)c(=O)n2C)c(Cl)c1OC(F)F` [Formula XXIIIb]: the “tolerance of maize enzyme Mz88Cys” value is “highly tolerant”.
